# Measurements from PMC3399817 (PLoS ONE, 2012).
# Key:
# Experiment in all cases: KINOMEscan
# Type in all cases: binding
# [1] = biological target: T1, RPS6KA2(Kin.Dom.1-N-terminal) (Homo sapiens, UniProt Q15349); conditions: 1 uM
# T1 construct: RPS6KA2(Kin.Dom.1-N-terminal); purchased Ambit KINOMEscan (DiscoverX)
# Method in brief: (§1)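 Panel profiling at one dose (1 μM) identifies kinases prevented from binding substrate by the test molecule.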
# [2] = biological target: T2, S6K1 (Homo sapiens, UniProt P23443); conditions: S6K1, 1 uM
# T2 construct: purchased Ambit KINOMEscan (DiscoverX)
# Method in brief: as §1
# [3] = biological target: T3, SRC (Homo sapiens, UniProt P12931); conditions: 1 uM
# T3 construct: purchased Ambit KINOMEscan (DiscoverX)
# Method in brief: as §1
# [4] = biological target: T4, EGFR(T790M) (Homo sapiens, UniProt P00533, T790M); conditions: 1 uM
# T4 construct: purchased Ambit KINOMEscan (DiscoverX)
# Method in brief: as §1
# [5] = biological target: T5, TLK2 (Homo sapiens, UniProt Q86UE8); conditions: TLK2, 1 uM
# T5 construct: purchased Ambit KINOMEscan (DiscoverX)
# Method in brief: as §1
# [6] = biological target: T6, PFPK5(P.falciparum) (Plasmodium falciparum, UniProt P61075); conditions: 1 uM
# T6 construct: purchased Ambit KINOMEscan (DiscoverX)
# Method in brief: as §1
# [7] = biological target: T7, ABL1(H396P)-phosphorylated (Homo sapiens, UniProt P00519, H396P); conditions: 1 uM
# T7 construct: purchased Ambit KINOMEscan (DiscoverX)
# Method in brief: as §1
# [8] = biological target: T8, MEK5 (Homo sapiens, UniProt Q13163); conditions: MEK5, 1 uM
# T8 construct: purchased Ambit KINOMEscan (DiscoverX)
# T8 sequence (Q13163 whole entry): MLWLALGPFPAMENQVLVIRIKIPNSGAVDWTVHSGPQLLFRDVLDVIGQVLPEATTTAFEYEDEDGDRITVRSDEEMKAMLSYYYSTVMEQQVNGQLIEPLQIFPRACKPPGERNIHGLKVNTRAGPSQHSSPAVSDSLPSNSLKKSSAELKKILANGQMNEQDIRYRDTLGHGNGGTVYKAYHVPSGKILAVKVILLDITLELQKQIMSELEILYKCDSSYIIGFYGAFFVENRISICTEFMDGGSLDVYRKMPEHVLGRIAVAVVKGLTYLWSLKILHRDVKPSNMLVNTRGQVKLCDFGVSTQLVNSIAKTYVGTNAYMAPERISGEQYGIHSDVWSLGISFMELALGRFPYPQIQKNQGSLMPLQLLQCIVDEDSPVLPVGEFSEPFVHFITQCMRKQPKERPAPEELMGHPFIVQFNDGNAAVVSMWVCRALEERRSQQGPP
# Method in brief: as §1
# [9] = biological target: T9, CSNK1A1L (Homo sapiens, UniProt Q8N752); conditions: 1 uM
# T9 construct: purchased Ambit KINOMEscan (DiscoverX)
# T9 sequence (Q8N752 whole entry): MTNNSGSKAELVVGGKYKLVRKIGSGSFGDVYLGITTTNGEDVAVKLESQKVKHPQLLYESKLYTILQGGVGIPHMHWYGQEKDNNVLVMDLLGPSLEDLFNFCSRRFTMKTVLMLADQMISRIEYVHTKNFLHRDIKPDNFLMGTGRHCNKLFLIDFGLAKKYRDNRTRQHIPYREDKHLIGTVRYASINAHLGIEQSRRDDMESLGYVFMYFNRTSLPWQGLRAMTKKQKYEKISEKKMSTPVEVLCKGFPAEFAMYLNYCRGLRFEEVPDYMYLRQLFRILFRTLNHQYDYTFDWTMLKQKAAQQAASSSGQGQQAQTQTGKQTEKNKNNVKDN
# Method in brief: as §1
# [10] = biological target: T10, LRRK2(G2019S) (Homo sapiens, UniProt Q5S007, G2019S); conditions: 1 uM
# T10 construct: purchased Ambit KINOMEscan (DiscoverX)
# Method in brief: as §1
# [11] = biological target: T11, ABL1(F317I)-phosphorylated (Homo sapiens, UniProt P00519, F317I); conditions: 1 uM
# T11 construct: purchased Ambit KINOMEscan (DiscoverX)
# Method in brief: as §1
# [12] = biological target: T12, CASK (Homo sapiens, UniProt O14936); conditions: 1 uM
# T12 construct: purchased Ambit KINOMEscan (DiscoverX)
# Method in brief: as §1
# [13] = biological target: T13, FLT3 (Homo sapiens, UniProt P36888); conditions: FLT3, 1 uM
# T13 construct: purchased Ambit KINOMEscan (DiscoverX)
# Method in brief: as §1
# [14] = biological target: T14, RPS6KA3(Kin.Dom.1-N-terminal) (Homo sapiens, UniProt P51812); conditions: 1 uM
# T14 construct: RPS6KA3(Kin.Dom.1-N-terminal); purchased Ambit KINOMEscan (DiscoverX)
# Method in brief: as §1
# [15] = biological target: T15, EGFR(L861Q) (Homo sapiens, UniProt P00533, L861Q); conditions: 1 uM
# T15 construct: purchased Ambit KINOMEscan (DiscoverX)
# Method in brief: as §1
# [16] = biological target: T16, CAMK2B (Homo sapiens, UniProt Q13554); conditions: 1 uM
# T16 construct: purchased Ambit KINOMEscan (DiscoverX)
# Method in brief: as §1
# [17] = biological target: T17, PRKCI (Homo sapiens, UniProt P41743); conditions: 1 uM
# T17 construct: purchased Ambit KINOMEscan (DiscoverX)
# Method in brief: as §1
# [18] = biological target: T18, CDKL1 (Homo sapiens, UniProt Q00532); conditions: CDKL1, 1 uM
# T18 construct: purchased Ambit KINOMEscan (DiscoverX)
# Method in brief: as §1
# [19] = biological target: T19, RET(V804L) (Homo sapiens, UniProt P07949, V804L); conditions: 1 uM
# T19 construct: purchased Ambit KINOMEscan (DiscoverX)
# T19 sequence (P07949 29-1114 V804L): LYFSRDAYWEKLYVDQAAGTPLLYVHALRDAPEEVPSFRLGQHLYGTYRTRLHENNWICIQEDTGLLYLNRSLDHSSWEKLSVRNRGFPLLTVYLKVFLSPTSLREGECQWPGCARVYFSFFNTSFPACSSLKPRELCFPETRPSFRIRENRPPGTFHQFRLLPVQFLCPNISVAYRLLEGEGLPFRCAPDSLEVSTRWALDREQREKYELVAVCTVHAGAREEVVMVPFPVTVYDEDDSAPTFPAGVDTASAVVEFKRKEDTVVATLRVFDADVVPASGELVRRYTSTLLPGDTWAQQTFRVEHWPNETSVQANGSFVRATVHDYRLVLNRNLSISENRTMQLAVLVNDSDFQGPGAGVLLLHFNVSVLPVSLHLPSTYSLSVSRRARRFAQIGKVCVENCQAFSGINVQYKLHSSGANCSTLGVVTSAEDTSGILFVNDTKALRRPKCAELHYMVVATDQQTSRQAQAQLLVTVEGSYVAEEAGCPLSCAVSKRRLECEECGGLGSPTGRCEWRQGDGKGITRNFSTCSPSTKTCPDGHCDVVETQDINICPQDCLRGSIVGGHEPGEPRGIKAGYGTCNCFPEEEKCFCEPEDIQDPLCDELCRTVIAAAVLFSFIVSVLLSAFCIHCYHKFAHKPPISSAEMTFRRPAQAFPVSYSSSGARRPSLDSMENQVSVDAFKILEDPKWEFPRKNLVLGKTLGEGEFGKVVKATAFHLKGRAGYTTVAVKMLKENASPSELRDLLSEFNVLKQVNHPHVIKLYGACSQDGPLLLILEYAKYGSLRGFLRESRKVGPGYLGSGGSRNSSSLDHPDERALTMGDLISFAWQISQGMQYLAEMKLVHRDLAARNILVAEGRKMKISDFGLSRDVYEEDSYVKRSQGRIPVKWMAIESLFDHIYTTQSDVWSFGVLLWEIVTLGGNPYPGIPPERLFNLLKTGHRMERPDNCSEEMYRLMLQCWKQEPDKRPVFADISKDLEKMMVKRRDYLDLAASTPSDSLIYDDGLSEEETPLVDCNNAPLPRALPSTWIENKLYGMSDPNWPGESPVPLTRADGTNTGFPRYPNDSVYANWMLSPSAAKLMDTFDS
# Method in brief: as §1
# [20] = biological target: T20, EGFR(L858R,T790M) (Homo sapiens, UniProt P00533, L858R/T790M); conditions: 1 uM
# T20 construct: purchased Ambit KINOMEscan (DiscoverX)
# Method in brief: as §1
# [21] = biological target: T21, CAMK2G (Homo sapiens, UniProt Q13555); conditions: 1 uM
# T21 construct: purchased Ambit KINOMEscan (DiscoverX)
# Method in brief: as §1
# [22] = biological target: T22, ABL1(F317L)-nonphosphorylated (Homo sapiens, UniProt P00519, F317L); conditions: 1 uM
# T22 construct: purchased Ambit KINOMEscan (DiscoverX)
# Method in brief: as §1
# [23] = biological target: T23, CLK1 (Homo sapiens, UniProt P49759); conditions: CLK1, 1 uM
# T23 construct: purchased Ambit KINOMEscan (DiscoverX)
# T23 sequence (P49759 whole entry): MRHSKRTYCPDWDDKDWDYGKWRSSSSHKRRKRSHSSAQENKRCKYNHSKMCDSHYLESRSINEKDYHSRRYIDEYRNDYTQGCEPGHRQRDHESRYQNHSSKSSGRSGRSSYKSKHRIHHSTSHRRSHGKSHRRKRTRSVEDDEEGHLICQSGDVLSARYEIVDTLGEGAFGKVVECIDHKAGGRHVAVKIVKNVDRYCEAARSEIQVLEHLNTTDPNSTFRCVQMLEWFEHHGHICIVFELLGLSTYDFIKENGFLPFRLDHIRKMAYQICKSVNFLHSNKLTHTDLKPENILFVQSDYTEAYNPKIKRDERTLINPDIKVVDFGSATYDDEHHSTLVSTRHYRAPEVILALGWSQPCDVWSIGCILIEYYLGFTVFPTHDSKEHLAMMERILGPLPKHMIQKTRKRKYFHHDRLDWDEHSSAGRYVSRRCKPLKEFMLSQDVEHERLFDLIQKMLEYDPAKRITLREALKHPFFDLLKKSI
# Method in brief: as §1
# [24] = biological target: T24, ABL1(F317L)-phosphorylated (Homo sapiens, UniProt P00519, F317L); conditions: 1 uM
# T24 construct: purchased Ambit KINOMEscan (DiscoverX)
# Method in brief: as §1
# [25] = biological target: T25, RET(M918T) (Homo sapiens, UniProt P07949, M918T); conditions: 1 uM
# T25 construct: purchased Ambit KINOMEscan (DiscoverX)
# T25 sequence (P07949 29-1114 M918T): as the sequence (P07949 29-1114 V804L) above, with L776V, M890T counted along it
# Method in brief: as §1
# [26] = biological target: T26, MYLK4 (Homo sapiens, UniProt Q86YV6); conditions: MYLK4, 1 uM
# T26 construct: purchased Ambit KINOMEscan (DiscoverX)
# Method in brief: as §1
# [27] = biological target: T27, PIK3CA(H1047L) (Homo sapiens, UniProt P42336, H1047L); conditions: 1 uM
# T27 construct: purchased Ambit KINOMEscan (DiscoverX)
# Method in brief: as §1
# [28] = biological target: T28, EIF2AK1 (Homo sapiens, UniProt Q9BQI3); conditions: EIF2AK1, 1 uM
# T28 construct: purchased Ambit KINOMEscan (DiscoverX)
# Method in brief: as §1
# [29] = biological target: T29, KIT(D816H) (Homo sapiens, UniProt P10721, D816H); conditions: 1 uM
# T29 construct: purchased Ambit KINOMEscan (DiscoverX)
# Method in brief: as §1
# [30] = biological target: T30, RIPK5 (Homo sapiens, UniProt Q6XUX3); conditions: RIPK5, 1 uM
# T30 construct: purchased Ambit KINOMEscan (DiscoverX)
# Method in brief: as §1
# [31] = biological target: T31, NEK11 (Homo sapiens, UniProt Q8NG66); conditions: NEK11, 1 uM
# T31 construct: purchased Ambit KINOMEscan (DiscoverX)
# T31 sequence (Q8NG66 whole entry): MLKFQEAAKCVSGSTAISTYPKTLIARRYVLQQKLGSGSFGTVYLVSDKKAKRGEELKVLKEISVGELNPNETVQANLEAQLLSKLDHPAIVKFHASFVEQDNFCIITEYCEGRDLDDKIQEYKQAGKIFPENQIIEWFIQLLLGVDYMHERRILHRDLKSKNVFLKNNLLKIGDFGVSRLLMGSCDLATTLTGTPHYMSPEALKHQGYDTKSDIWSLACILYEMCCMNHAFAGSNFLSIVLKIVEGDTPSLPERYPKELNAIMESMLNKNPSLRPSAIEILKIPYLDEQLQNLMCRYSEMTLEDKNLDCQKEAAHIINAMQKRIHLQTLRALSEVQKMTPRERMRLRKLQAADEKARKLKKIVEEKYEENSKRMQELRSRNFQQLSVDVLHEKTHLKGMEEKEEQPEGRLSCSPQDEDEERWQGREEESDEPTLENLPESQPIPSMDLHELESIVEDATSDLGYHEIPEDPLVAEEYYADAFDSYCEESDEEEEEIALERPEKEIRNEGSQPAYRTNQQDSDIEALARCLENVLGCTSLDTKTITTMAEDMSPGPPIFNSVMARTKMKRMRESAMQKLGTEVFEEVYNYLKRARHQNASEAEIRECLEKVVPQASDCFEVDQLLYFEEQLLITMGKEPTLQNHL
# Method in brief: as §1
# [32] = biological target: T32, SNRK (Homo sapiens, UniProt Q9NRH2); conditions: 1 uM
# T32 construct: purchased Ambit KINOMEscan (DiscoverX)
# T32 sequence (Q9NRH2 whole entry): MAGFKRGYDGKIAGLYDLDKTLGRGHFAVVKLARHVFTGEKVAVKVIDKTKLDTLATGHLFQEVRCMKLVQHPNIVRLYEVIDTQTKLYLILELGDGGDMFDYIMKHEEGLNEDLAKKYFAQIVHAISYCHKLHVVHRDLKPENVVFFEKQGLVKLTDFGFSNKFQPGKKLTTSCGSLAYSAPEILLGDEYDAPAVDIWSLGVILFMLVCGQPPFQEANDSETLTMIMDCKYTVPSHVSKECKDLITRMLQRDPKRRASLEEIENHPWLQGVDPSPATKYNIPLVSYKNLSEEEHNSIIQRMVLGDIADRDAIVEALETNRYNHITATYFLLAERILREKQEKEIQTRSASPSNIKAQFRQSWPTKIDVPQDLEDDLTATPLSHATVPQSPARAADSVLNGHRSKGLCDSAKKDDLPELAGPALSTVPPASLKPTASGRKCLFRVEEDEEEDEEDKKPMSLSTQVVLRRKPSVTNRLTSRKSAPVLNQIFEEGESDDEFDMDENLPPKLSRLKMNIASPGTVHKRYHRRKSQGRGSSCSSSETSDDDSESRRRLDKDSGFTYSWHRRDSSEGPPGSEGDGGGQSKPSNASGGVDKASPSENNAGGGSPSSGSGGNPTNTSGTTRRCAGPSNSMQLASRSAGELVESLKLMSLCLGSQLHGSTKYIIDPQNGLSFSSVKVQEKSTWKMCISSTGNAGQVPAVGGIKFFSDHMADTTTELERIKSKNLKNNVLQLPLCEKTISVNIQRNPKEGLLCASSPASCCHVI
# Method in brief: as §1
# [33] = biological target: T33, PIP5K2C (Homo sapiens, UniProt Q8TBX8); conditions: 1 uM
# T33 construct: purchased Ambit KINOMEscan (DiscoverX)
# Method in brief: as §1
# [34] = biological target: T34, PFCDPK1(P.falciparum) (Plasmodium falciparum, UniProt P62344); conditions: 1 uM
# T34 construct: purchased Ambit KINOMEscan (DiscoverX)
# Method in brief: as §1
# [35] = biological target: T35, MTOR (Homo sapiens, UniProt P42345); conditions: 1 uM
# T35 construct: purchased Ambit KINOMEscan (DiscoverX)
# Method in brief: as §1
# [36] = biological target: T36, CDK4-cyclinD3 (Homo sapiens, UniProt P11802); conditions: CDK4-cyclinD3, 1 uM
# T36 construct: purchased Ambit KINOMEscan (DiscoverX)
# T36 sequence (P11802 whole entry): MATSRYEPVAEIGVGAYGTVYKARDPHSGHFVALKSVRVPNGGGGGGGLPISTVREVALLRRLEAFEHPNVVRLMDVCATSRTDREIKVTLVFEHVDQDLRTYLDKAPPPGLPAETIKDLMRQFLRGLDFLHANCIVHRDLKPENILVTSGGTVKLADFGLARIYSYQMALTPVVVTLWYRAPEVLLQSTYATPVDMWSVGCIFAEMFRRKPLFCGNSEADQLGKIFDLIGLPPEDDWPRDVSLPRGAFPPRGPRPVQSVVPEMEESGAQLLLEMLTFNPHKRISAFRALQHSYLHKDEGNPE
# T36 sequence (P30281 whole entry partner): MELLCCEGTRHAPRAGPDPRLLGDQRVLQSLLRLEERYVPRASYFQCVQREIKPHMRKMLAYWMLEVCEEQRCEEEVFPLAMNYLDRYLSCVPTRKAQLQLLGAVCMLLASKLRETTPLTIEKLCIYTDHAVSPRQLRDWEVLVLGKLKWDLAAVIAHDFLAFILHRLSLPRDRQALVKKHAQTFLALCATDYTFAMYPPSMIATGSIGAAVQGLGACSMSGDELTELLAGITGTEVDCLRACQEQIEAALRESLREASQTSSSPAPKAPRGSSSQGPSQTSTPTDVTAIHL
# Method in brief: as §1
# [37] = biological target: T37, EGFR(L747-S752del, P753S) (Homo sapiens, UniProt P00533, DEL747-752/P753S); conditions: 1 uM
# T37 construct: purchased Ambit KINOMEscan (DiscoverX)
# Method in brief: as §1
# [38] = biological target: T38, RET (Homo sapiens, UniProt P07949); conditions: 1 uM
# T38 construct: purchased Ambit KINOMEscan (DiscoverX)
# T38 sequence (P07949 29-1114): as the sequence (P07949 29-1114 V804L) above, with L776V counted along it
# Method in brief: as §1
# T1 sequence (Q15349 1-388 limits assumed): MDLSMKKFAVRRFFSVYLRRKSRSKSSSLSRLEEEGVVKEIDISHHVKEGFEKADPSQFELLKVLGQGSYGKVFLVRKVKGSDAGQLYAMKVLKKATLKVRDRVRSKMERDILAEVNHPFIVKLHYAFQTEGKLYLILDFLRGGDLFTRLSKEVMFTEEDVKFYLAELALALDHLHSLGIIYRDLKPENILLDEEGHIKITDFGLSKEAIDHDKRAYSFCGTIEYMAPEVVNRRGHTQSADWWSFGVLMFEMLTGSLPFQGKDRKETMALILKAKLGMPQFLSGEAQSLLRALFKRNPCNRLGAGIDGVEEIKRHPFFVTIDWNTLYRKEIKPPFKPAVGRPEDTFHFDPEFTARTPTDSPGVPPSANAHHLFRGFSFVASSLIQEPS
smiles,measurement,setting,value
"COc1ccc(-c2cc3nccn3c(Nc3ncccc3C(N)=O)n2)cc1OC.Cl.Cl [BAY61-3606, 2-[7-(3,4-dimethoxyphenyl)-imidazo [1,2-c]pyrimidin-5-ylamino] nicotinamide dihydrochloride, reference compound]",% binding compared to no inhibitor control,[1],92%
COc1ccccc1Nc1nc(-c2ccc(OC)c(OC)c2)cc2nccn12 [BAY derivative 6],% binding compared to no inhibitor control,[2],84%
same,% binding compared to no inhibitor control,[3],51%
same,% binding compared to no inhibitor control,[4],48%
same,% binding compared to no inhibitor control,[5],100%
same,% binding compared to no inhibitor control,[6],100%
same,% binding compared to no inhibitor control,[7],100%
same,% binding compared to no inhibitor control,[8],100%
same,% binding compared to no inhibitor control,[9],100%
same,% binding compared to no inhibitor control,[10],92%
same,% binding compared to no inhibitor control,[11],86%
same,% binding compared to no inhibitor control,[12],100%
same,% binding compared to no inhibitor control,[13],52%
same,% binding compared to no inhibitor control,[14],96%
same,% binding compared to no inhibitor control,[15],68%
same,% binding compared to no inhibitor control,[16],100%
same,% binding compared to no inhibitor control,[17],100%
same,% binding compared to no inhibitor control,[18],100%
same,% binding compared to no inhibitor control,[19],95%
same,% binding compared to no inhibitor control,[20],85%
same,% binding compared to no inhibitor control,[21],100%
same,% binding compared to no inhibitor control,[22],100%
same,% binding compared to no inhibitor control,[23],100%
same,% binding compared to no inhibitor control,[24],100%
same,% binding compared to no inhibitor control,[25],72%
same,% binding compared to no inhibitor control,[26],100%
same,% binding compared to no inhibitor control,[27],100%
same,% binding compared to no inhibitor control,[28],88%
same,% binding compared to no inhibitor control,[29],61%
same,% binding compared to no inhibitor control,[30],100%
same,% binding compared to no inhibitor control,[31],84%
same,% binding compared to no inhibitor control,[32],94%
same,% binding compared to no inhibitor control,[33],99%
same,% binding compared to no inhibitor control,[34],67%
same,% binding compared to no inhibitor control,[35],67%
same,% binding compared to no inhibitor control,[36],95%
same,% binding compared to no inhibitor control,[37],76%
same,% binding compared to no inhibitor control,[38],100%
